Data taken from PubChem BioAssay (NCI).
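GI50 is the concentration that inhibits growth by half. Definition used: TGI = concentration required for complete inhibition of growth.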

Assays:
Experiment in all cases: inhibition of tumour cell growth, NCI panel, 384-well format; in the data active means GI50 below about 0.43 µM; inactive means the rest
ACHN renal = system: ACHN renal
CAKI-1 renal = system: CAKI-1 renal
HL-60(TB) leukemia = system: HL-60(TB) leukemia
K-562 leukemia = system: K-562 leukemia
MDA-MB-231 breast = system: MDA-MB-231 breast
NCI-H460 NSCLC = system: NCI-H460 NSCLC
OVCAR-3 ovarian = system: OVCAR-3 ovarian
OVCAR-4 ovarian = system: OVCAR-4 ovarian
SF-539 CNS = system: SF-539 CNS
SK-OV-3 ovarian = system: SK-OV-3 ovarian
SNB-75 CNS = system: SNB-75 CNS
SW-620 colon = system: SW-620 colon
U251 glioblastoma = system: U251 glioblastoma

CC(=O)N1CCC(Nc2cc(C(=O)NC[C@H](O)CN3CCc4ccccc4C3)ncn2)CC1
> 100 µM: TGI (ACHN renal) | TGI (CAKI-1 renal) | TGI (HL-60(TB) leukemia) | TGI (K-562 leukemia) | TGI (MDA-MB-231 breast) | TGI (NCI-H460 NSCLC) | TGI (OVCAR-3 ovarian) | TGI (OVCAR-4 ovarian) | TGI (SF-539 CNS) | TGI (SK-OV-3 ovarian) | TGI (SNB-75 CNS) | TGI (SW-620 colon) | TGI (U251 glioblastoma)
inactive: GI50 (ACHN renal) > 100 µM | GI50 (CAKI-1 renal) > 100 µM | GI50 (HL-60(TB) leukemia) > 100 µM | GI50 (K-562 leukemia) > 100 µM | GI50 (MDA-MB-231 breast) > 100 µM | GI50 (NCI-H460 NSCLC) 1.9 µM | GI50 (OVCAR-3 ovarian) > 100 µM | GI50 (OVCAR-4 ovarian) 4.44 µM | GI50 (SF-539 CNS) > 100 µM | GI50 (SK-OV-3 ovarian) > 100 µM | GI50 (SNB-75 CNS) > 100 µM | GI50 (SW-620 colon) > 35.6 µM | GI50 (U251 glioblastoma) > 100 µM
